{"source": "patent US10246712B2", "about": "“Genetic or pharmacological reduction of PERK enhances cortical- and hippocampus-dependent cognitive function” (Carmel-Haifa University Economic Corp. Ltd, priority 2015, dated 2019)", "key": {"PERK [1]": {"system": "PERK", "type": "in vivo, mouse", "conditions": "CA1 punches after 100 nM infusion into CA1; vs vehicle", "source_text": "Animals were anesthetized under 2% isoflurane using an isoflurane table top unit (HME109, Highland Medical Equipment). Under aseptic conditions, a rodent stereotaxic apparatus (Kopf Stereotaxic Alignment System Model 1900) with continuous 1% isoflurane anesthesia was used. For CA1 infusion cannula was implanted bilaterally into the CA1 region (from the bregma: −1.94 mm AP, ±1.0 mm ML, −1.0 mm DV). The implanted cannula was cemented on the skull. Each cannula was fitted with a 28 gauge dummy cannula that extended 0.1 mm beyond the tip of the guide cannula to prevent blockage of the guide cannula. After cannulation, mice were allowed to recover for 7 days before infusion of PERK inhibitor or vehicle and behavior. On conditioning day, randomly assigned mice were infused with 100 nM PERK inhibitor GSK2606414 (Axten et al., 2012) dissolved in dimethyl sulfoxide (DMSO) and further diluted in saline to a final DMSO concentration of 0.5%, via a 28-gauge infusion cannula connected by polyethylene (PE 20) tubing to a 10 μL Hamilton microsyringe (Hamilton Company). The infusion cannula protruded 0.25 mm beyond the guide cannula. For CA1 administration, infusion volume of 1 μl of 100 nM GSK2606414 or vehicle was delivered using a Harvard PHD2000 syringe pump (Harvard Apparatus) over the course of 1 min (at a rate of 1 μL/min). […]"}, "PERK [2]": {"molecular_target": "T1, PERK (Rattus norvegicus, UniProt Q9Z1Z1)", "T1 construct": "the PERK shRNA lentivirus was stereotacticaly injected to the IC of adult rats; from tissue; host or cells: insular cortex of adult male Wistar Hola rats, in vivo", "T1 sequence (Q9Z1Z1 28-1108)": "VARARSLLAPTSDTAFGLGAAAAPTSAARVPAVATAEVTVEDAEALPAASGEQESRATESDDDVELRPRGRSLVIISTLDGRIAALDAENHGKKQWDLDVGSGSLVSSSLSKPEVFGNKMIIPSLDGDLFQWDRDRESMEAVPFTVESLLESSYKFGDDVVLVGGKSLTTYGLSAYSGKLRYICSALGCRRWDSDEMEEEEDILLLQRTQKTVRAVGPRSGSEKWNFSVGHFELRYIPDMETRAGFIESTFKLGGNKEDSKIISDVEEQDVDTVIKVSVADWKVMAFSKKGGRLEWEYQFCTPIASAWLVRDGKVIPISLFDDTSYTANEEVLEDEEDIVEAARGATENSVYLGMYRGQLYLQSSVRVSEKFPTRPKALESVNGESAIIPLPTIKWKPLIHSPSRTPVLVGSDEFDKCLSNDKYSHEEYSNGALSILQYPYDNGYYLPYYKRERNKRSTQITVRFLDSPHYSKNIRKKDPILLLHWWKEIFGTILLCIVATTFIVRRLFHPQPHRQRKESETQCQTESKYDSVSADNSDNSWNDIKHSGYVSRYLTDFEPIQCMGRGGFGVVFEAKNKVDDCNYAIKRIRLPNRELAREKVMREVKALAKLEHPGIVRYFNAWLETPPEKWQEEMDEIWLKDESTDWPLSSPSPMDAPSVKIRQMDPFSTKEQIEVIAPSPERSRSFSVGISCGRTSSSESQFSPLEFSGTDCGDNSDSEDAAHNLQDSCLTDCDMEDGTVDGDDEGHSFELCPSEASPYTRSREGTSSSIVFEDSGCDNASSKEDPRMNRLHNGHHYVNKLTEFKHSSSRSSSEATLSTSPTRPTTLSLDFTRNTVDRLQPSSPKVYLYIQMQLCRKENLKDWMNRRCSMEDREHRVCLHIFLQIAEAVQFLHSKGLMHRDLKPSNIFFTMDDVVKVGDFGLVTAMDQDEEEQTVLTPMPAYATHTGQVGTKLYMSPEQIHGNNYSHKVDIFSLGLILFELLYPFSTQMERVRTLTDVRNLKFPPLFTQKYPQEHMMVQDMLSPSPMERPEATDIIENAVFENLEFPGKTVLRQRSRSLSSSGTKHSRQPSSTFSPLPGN", "type": "in vivo", "conditions": "0.1% saccharin; 1 μl 100 nM into IC 20 min prior to novel taste; test day1; n=8", "procedure": "For virus infusions, rats were first anesthetized with Ketamine (120 mg/kg) and Xylazine (6 mg/kg) and placed into a stereotactic frame (Steolting Europe, Dublin—Ireland) (Using a 32-gauge stainless steel injector attached to a stereotactic infusion pump, rats received 1 μl of lentivirus encoding PERK shRNA or lentivirus harboring a scrambled sequence over 10 min into the insular cortex (anteroposterior, +1.2 mm relative to bregma; lateral, ±5.5 mm; ventral, −6.0 mm) according to the atlas of Paxinos, G. & Watson, C. (2006). The injector was lets in place for 5 min before and after infusion to minimize fluid retraction. The rats were allowed at least 7 days to recover from the surgery before any behavior experiments were conducted.\nThe rats were cannulated as described in Barki-Harrington et al. (2009). […]\nThe rats were separated into individual housing cages and underwent a 3-day water-restriction training session, in which once a day for 20 min, they were offered 20 ml of water from two pipettes, each containing 10 ml. […] The behavioral data are presented in terms of preference index, expressed as a percentage, [ml saccharin/(ml water plus ml saccharin)]×100, in which the quantities are those consumed during each test."}, "p-eIF2α": {"system": "p-eIF2α", "assay": "Immunoblot of p-eIF2α levels in CA1 punches", "type": "in vivo, mouse", "conditions": "CA1 punches after 100 nM infusion into CA1, adult mice; vs vehicle"}}, "data": [{"smiles": "Cn1cc(-c2ccc3c(c2)CCN3C(=O)Cc2cccc(C(F)(F)F)c2)c2c(N)ncnc21", "note": "[GSK2606414, 7-methyl-5-(1-{[3-(trifluoromethyl)phenyl]acetyl}-2,3-dihydro-1H-indol-5-yl)-7H-pyrrolo[2,3-d]pyrimidin-4-amine]", "values": [{"measurement": "total PERK levels", "setting": "PERK [1]", "result": "no effect"}, {"measurement": "preference index", "setting": "PERK [2]", "result": "83%±2.2"}, {"measurement": "p-eIF2α levels", "setting": "p-eIF2α", "result": "significant reduction"}]}]}
